Measured values from patent US8106197B2, “Aminoheteroaryl compounds as protein kinase inhibitors” (Pfizer Inc., priority 2003, dated 2012).

Biological target: T1, HGFR (Homo sapiens, UniProt P08581)
T1 construct: purchased Upstate 14-526
Assay: HGFR continuous-coupled spectrophotometric assay
Type: biochemical
Details: Table 3; Ki(μM) or I(%)

T1 sequence (P08581 974-1390 limits assumed): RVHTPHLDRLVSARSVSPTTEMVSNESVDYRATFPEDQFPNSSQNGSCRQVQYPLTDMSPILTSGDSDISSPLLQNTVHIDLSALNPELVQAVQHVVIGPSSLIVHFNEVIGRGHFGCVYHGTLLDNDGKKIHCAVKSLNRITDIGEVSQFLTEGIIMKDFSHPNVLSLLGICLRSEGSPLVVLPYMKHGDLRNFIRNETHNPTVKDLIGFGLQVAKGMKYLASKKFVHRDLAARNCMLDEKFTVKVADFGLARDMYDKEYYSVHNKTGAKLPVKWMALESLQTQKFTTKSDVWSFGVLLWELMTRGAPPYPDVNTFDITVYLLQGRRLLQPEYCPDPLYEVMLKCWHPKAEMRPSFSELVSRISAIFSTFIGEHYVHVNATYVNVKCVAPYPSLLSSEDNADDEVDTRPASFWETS

CC(Oc1cc(-c2ccccc2F)cnc1N)c1c(Cl)ccc(F)c1Cl (stereo not drawn) [Example I-563, 3-[1-(2,6-Dichloro-3-fluoro-phenyl)-ethoxy]-5-(2-fluoro-phenyl)-pyridin-2-ylamine] was tested, and the Ki was 0.433 µM.

Same assay, conditions: Table 3; Ki(μM) or I(%); test concentration not given

First: COC(=O)c1ccc(-c2cnc(N)c(OC(C)c3c(Cl)ccc(F)c3Cl)c2)c(C)c1 (stereo not drawn) [Example I-548, 4-{6-Amino-5-[1-(2,6-dichloro-3-fluoro-phenyl)-ethoxy]-Pyndin-3-yl}-3-methyl-benzoic acid methyl ester]
Second: Cc1ccccc1-c1cnc(N)c(OC(C)c2c(Cl)ccc(F)c2Cl)c1 (stereo not drawn) [Example I-565, 3-[1-(2,6-Dichloro-3-fluoro-phenyl)-ethoxy]-5-o-tolyl-pyridin-2-ylamine]
The “I(%)” value of the first is lower: 17% for the first, 25% for the second.

Going from COc1cc(C(=O)N2C[C@@H](C)N[C@@H](C)C2)cc(OC)c1-c1cnc(N)c(OC(C)c2c(Cl)ccc(F)c2Cl)c1 (stereo partly drawn) [Example I-550, (4-{6-Amino-5-[1-(2,6-dichloro-3-fluoro-phenyl)-ethoxy]-pyridin-3-yl)-3,5-dimethoxy-phenyl)-(dimethyl-piperazin-1-yl)-methanone] to COc1cccc(OC)c1-c1cnc(N)c(OC(C)c2c(Cl)ccc(F)c2Cl)c1 (stereo not drawn) [Example I-558, 3-[1-(2,6-Dichloro-3-fluoro-phenyl)-ethoxy]-5-(2,6-dimethoxy-phenyl)-pyridin-2-ylamine], the “I(%)” value falls from 15% to 2%.

Going from CCOc1ccccc1-c1cnc(N)c(OC(C)c2c(Cl)ccc(F)c2Cl)c1 (stereo not drawn) [Example I-555, 3-[1-(2,6-Dichloro-3-fluoro-phenyl)-ethoxy]-5-(2-ethoxy-phenyl)-pyridin-2-ylamine] to CC(Oc1cc(-c2ccccc2Cl)cnc1N)c1c(Cl)ccc(F)c1Cl (stereo not drawn) [Example I-560, 5-(2-Chloro-phenyl)-3-[1-(2,6-dichloro-3-fluoro-phenyl)-ethoxy]-pyridin-2-ylamine], the “I(%)” value rises from 22% to 24%.

Compared with CC(Oc1cc(-c2ccccc2C(F)(F)F)cnc1N)c1c(Cl)ccc(F)c1Cl (stereo not drawn) [Example I-559, 3-[1-(2,6-Dichloro-3-fluoro-phenyl)-ethoxy]-5-(2-trifluoromethyl-phenyl)-pyridin-2-ylamine], CC(Oc1cc(-c2ccccc2OC(F)(F)F)cnc1N)c1c(Cl)ccc(F)c1Cl (stereo not drawn) [Example I-561, 3-[1-(2,6-Didiloro-3-fluoro-phenyl)-ethoxy]-5-(2-trifluoromethoxy-phenyl)-pyridin-2-ylamine] is higher in “I(%)” value: 4% for the first, 14% for the second.

Going from CC(=O)c1ccccc1-c1cnc(N)c(OC(C)c2c(Cl)ccc(F)c2Cl)c1 (stereo not drawn) [Example I-562, 1-(2-{6-Amino-5-[1-(2,6-dichloro-3-fluoro-phenyl)-ethoxy]-pyridin-3-yl}-phenyl)-ethanone] to CC(Oc1cc(-c2ccccc2CO)cnc1N)c1c(Cl)ccc(F)c1Cl (stereo not drawn) [Example I-564, (2-{6-Amino-5-[1-(2,6-dichloro-3 fluoro-phenyl)-ethoxy]pyridin-3-yl}-phenyl)-methanol], the “I(%)” value rises from 8% to 21%.

Cc1cccc(C)c1-c1cnc(N)c(OC(C)c2c(Cl)ccc(F)c2Cl)c1 (stereo not drawn) [Example I-567, 3-[1-(2,6-Dichloro-fluoro-pheny)-ethoxy]-5-(2,6-dimethylphenyl)-pyridin-2-ylamine] and CC(Oc1cc(CNC2CCN(Cc3ccccc3)C2)cnc1N)c1c(Cl)ccc(F)c1Cl (stereo not drawn) [Example I-608, 5-[(1-Benzyl-pyrrolidin-3-ylamino)-methyl]-3-[1-(2,6-dichloro-3-fluoro-phenyl)-ethoxy]-pyridin-2-ylamine] are the same in “I(%)” value: 0% for the first, 0% for the second.

First: CC(Oc1cc(-c2ccc(C(=O)N3C[C@@H](C)N[C@@H](C)C3)cc2)cnc1N)c1ccccc1C(F)(F)F (stereo partly drawn) [Example I-616]
Second: CC(Oc1cc(-c2ccc(C(=O)N3C[C@@H](C)N[C@@H](C)C3)cc2)cnc1N)c1cccc(C(F)(F)F)c1 (stereo partly drawn) [Example I-617, (4-{6-Amino-5-[1-(3-trifluoromethyl-phenyl)-ethoxy]-pyridin-3-yl]-phenyl)-(3,5-dimethyl-piperazin-1-yl)-methanone]
The “I(%)” value of the first is higher: 3% for the first, 2% for the second.

First: C[C@@H]1CN(C(=O)c2ccc(-c3cnc4c(c3)OC(c3ccccc3)C(=O)N4)cc2)C[C@H](C)N1 (stereo partly drawn) [Example I-618, 7-(4-(3,5-Dimethyl-piperazine-1-carbonyl)-phenyl]-2-phenyl-4H-pyrido[3,2-b](1,4]oxazin-3-one]
Second: CC1CN(C(=O)c2ccc(-c3cnc(N)c(OCc4ccccc4)c3)cc2)CC(C)N1 (stereo not drawn) [Example I-621, {4-(6-Amino-5-benzyloxy-pyridin-3-yl)-phenyl]-(3,5-dimethyl-piperazin-1-yl)-methanone]
The “I(%)” value of the first is lower: 0% for the first, 6% for the second.

Compared with C[C@@H]1CN(C(=O)c2ccc(-c3cnc(N)c(OCc4cccc(F)c4C(F)(F)F)c3)cc2)C[C@H](C)N1 [Example I-619, {4-[6-Amino-5-(3-fluoro-2-trifluoromethyl-benzyloxy)-pyridin-3-yl]-phenyl}-(3,5-dimethyl-piperazin-1-yl)-methanone], CC1CN(C(=O)c2ccc(-c3cnc(N)c(OCc4c(F)cccc4F)c3)cc2)CC(C)N1 (stereo not drawn) [Example I-620, {4-[6-Amino-5-(2,6-difluoro-benzyloxy)-pyridin-3-yl]-phenyl}-(3,5-dimethyl-piperazin-1-yl)-methanone] is lower in “I(%)” value: 16% for the first, 5% for the second.

First: CCN1CCN(C(=O)c2ccc(-c3cnc(N)c(OCc4ccccc4)c3)cc2)CC1 [Example I-623, [4-(6-Amino-5-benzyloxy-pyridin-3-yl)-phenyl]-(4-ethyl-piperazin-1-yl)-methanone]
Second: COC(=O)c1cccc(COc2cc(-c3ccc(C(=O)N4CCC(N5CCCC5)CC4)cc3)cnc2N)c1 [Example I-625, 3-{2-Amino-5-[4-(4-pyrrolidin-1-yl-piperidzne-1-carbonyl)-phenyl]-pyridin-3-yloxymethyl)-benzoic acid methyl ester]
The “I(%)” value of the first is higher: 7% for the first, 6% for the second.

Cc1ccccc1COc1cc(-c2ccc(C(=O)N3CC(C)NC(C)C3)cc2)cnc1N (stereo not drawn) [Example I-624, {4-[6-Amino-5-(2-methyl-benzyloxy)-pyridin-3-yl]-phenyl}-(3,5-dimethyl-piperazin-1-yl)-methanone] and COC(=O)c1cccc(COc2cc(-c3ccc(C(=O)N4CC(C)NC(C)C4)cc3)cnc2N)c1 (stereo not drawn) [Example I-626, 3-{2-Amino-5-[4-(3,5-dimethyl-piperazine-1-carbonyl)-phenyl]-pyridin-3-yloxymethyl}-benzoic acid methyl ester] are the same in “I(%)” value: 0% for the first, 0% for the second.

Same assay, conditions: Table 6; percent c-MET inhibition at 1 μM; read-out: % inhibition

Compared with Nc1ncc(C(=O)NCCCN2CCOCC2)cc1OCc1c(Cl)cccc1Cl, Nc1ncc(C(=O)N2CCN(CCO)CC2)cc1OCc1c(Cl)cccc1Cl is higher in inhibition at 1 µM: 26% for the first, 51% for the second.

Compared with Nc1ncc(C(=O)NCc2ccc(S(N)(=O)=O)cc2)cc1OCc1c(Cl)cccc1Cl, Nc1ncc(C(=O)NCc2ccc(O)cc2)cc1OCc1c(Cl)cccc1Cl is higher in inhibition at 1 µM: 30% for the first, 37% for the second.

Compared with N#CC1(c2ccccc2)CCN(C(=O)c2cnc(N)c(OCc3c(Cl)cccc3Cl)c2)CC1, Nc1ncc(C(=O)N2CCN(c3ccccn3)CC2)cc1OCc1c(Cl)cccc1Cl is lower in inhibition at 1 µM: 37% for the first, 34% for the second.

Compared with Nc1ncc(C(=O)N2CCC(O)CC2)cc1OCc1c(Cl)cccc1Cl, CN1CCN(C(=O)c2cnc(N)c(OCc3c(Cl)cccc3Cl)c2)CC1 is lower in inhibition at 1 µM: 35% for the first, 32% for the second.

Going from Nc1ncc(C(=O)NCc2ccccc2Br)cc1OCc1c(Cl)cccc1Cl to Nc1ncc(C(=O)NCCc2ccccc2F)cc1OCc1c(Cl)cccc1Cl, the inhibition at 1 µM falls from 36% to 33%.

Compared with COc1ccc(CNC(=O)c2cnc(N)c(OCc3c(Cl)cccc3Cl)c2)c(OC)c1, Nc1ncc(C(=O)NCc2ccccc2OC(F)(F)F)cc1OCc1c(Cl)cccc1Cl is lower in inhibition at 1 µM: 59% for the first, 31% for the second.

First: CC(C)NC(=O)CN1CCN(C(=O)c2cnc(N)c(OCc3c(Cl)cccc3Cl)c2)CC1
Second: Nc1ncc(C(=O)N2CCN(CC(=O)N3CCCC3)CC2)cc1OCc1c(Cl)cccc1Cl
The inhibition at 1 µM of the first is lower: 30% for the first, 32% for the second.

Nc1ncc(C(=O)N2CCN(CCOCCO)CC2)cc1OCc1c(Cl)cccc1Cl and Nc1ncc(C(=O)N2CCCCC2CCO)cc1OCc1c(Cl)cccc1Cl (stereo not drawn) are the same in inhibition at 1 µM: 33% for the first, 33% for the second.

First: CCN(CC)C(=O)C1CCCN(C(=O)c2cnc(N)c(OCc3c(Cl)cccc3Cl)c2)C1 (stereo not drawn)
Second: CC(C)CCNC(=O)C1CC12CCN(C(=O)c1cnc(N)c(OCc3c(Cl)cccc3Cl)c1)CC2 (stereo not drawn)
The inhibition at 1 µM of the first is higher: 33% for the first, 21% for the second.

Compared with Nc1ncc(C(=O)NC2COC3(CCN(Cc4ccncc4)CC3)C2)cc1OCc1c(Cl)cccc1Cl (stereo not drawn), Nc1ncc(C(=O)N2CCC3(CC2)CC(CCc2ccnnc2)CO3)cc1OCc1c(Cl)cccc1Cl (stereo not drawn) is higher in inhibition at 1 µM: 20% for the first, 37% for the second.

Compared with Nc1ncc(C(=O)N2CCC(O)(CN3CCCC3=O)C2)cc1OCc1c(Cl)cccc1Cl (stereo not drawn), Nc1ncc(C(=O)N2CCC3(CC2)CC3C(=O)NCC2CC2)cc1OCc1c(Cl)cccc1Cl (stereo not drawn) is higher in inhibition at 1 µM: 20% for the first, 32% for the second.

Compared with CN(CCc1ccccn1)CC1(O)CCN(C(=O)c2cnc(N)c(OCc3c(Cl)cccc3Cl)c2)C1 (stereo not drawn), Nc1ncc(C(=O)N2CCCC(O)(COc3cccc(F)c3)C2)cc1OCc1c(Cl)cccc1Cl (stereo not drawn) is higher in inhibition at 1 µM: 18% for the first, 36% for the second.

Compared with Cc1cc(CCC2COC3(CCN(C(=O)c4cnc(N)c(OCc5c(Cl)cccc5Cl)c4)CC3)C2)no1 (stereo not drawn), Nc1ncc(C(=O)N2CCC3(CC2)COC(CCc2cc(O)n[nH]2)C3)cc1OCc1c(Cl)cccc1Cl (stereo not drawn) is higher in inhibition at 1 µM: 19% for the first, 34% for the second.

First: Nc1ncc(C(=O)N2CCCC(N3CCC(CO)CC3)CC2)cc1OCc1c(Cl)cccc1Cl (stereo not drawn)
Second: Nc1ncc(C(=O)N2CCn3c(CO)nnc3C2)cc1OCc1c(Cl)cccc1Cl
The inhibition at 1 µM of the first is lower: 20% for the first, 31% for the second.

Compared with CCc1ccc(COCC2CCN(C(=O)c3cnc(N)c(OCc4c(Cl)cccc4Cl)c3)CC2)nc1, Nc1ncc(C(=O)N2CCC(COc3cccc4cccnc34)C2)cc1OCc1c(Cl)cccc1Cl (stereo not drawn) is lower in inhibition at 1 µM: 41% for the first, 35% for the second.

Compared with Cc1ccn2cc(CNC(=O)c3cnc(N)c(OCc4c(Cl)cccc4Cl)c3)nc2n1, Nc1ncc(C(=O)NCc2cn3cc(Cl)ccc3n2)cc1OCc1c(Cl)cccc1Cl is lower in inhibition at 1 µM: 45% for the first, 38% for the second.

Compared with Cn1ccnc1SCC1(O)CCCN(C(=O)c2cnc(N)c(CCc3c(Cl)cccc3Cl)c2)CC1 (stereo not drawn), CC(C)CNC(=O)c1ccc(Cl)c(CNC(=O)c2cnc(N)c(OCc3c(Cl)cccc3Cl)c2)c1 is higher in inhibition at 1 µM: 35% for the first, 47% for the second.
